Legend:
[1] = target: Sigma non-opioid intracellular receptor 1 (Homo sapiens, UniProt Q99720); experiment: DRUGMATRIX: Sigma1 radioligand binding (ligand: [3H] Haloperidol); assay type: cell membranes, Jurkat, Membrane; settings: jurkat; Not Active = under 50% inhibition at 10 µM
[2] = target: T1, Thromboxane-A synthase (Homo sapiens, UniProt P24557); experiment: biochemical; assay type: tissue-based, Platelet;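 also: enzyme inhibition assay with PGH2 supplied as substrate; in other assays of this panel Not Active means under 50% inhibition at 10 µM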
T1 sequence (P24557 whole entry): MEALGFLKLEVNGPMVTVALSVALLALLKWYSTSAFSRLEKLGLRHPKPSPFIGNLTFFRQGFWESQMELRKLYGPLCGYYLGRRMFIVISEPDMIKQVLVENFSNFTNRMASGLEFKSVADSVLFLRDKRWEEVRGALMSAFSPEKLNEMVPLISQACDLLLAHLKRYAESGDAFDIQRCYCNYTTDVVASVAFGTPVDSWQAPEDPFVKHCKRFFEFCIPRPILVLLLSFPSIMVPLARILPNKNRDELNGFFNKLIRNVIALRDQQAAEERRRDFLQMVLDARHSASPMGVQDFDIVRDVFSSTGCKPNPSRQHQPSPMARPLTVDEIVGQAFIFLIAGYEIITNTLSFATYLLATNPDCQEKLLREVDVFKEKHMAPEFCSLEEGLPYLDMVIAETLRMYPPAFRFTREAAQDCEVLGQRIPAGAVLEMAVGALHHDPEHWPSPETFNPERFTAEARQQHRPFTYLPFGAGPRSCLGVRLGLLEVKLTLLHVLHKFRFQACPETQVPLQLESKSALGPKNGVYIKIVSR

[3] = DRUGMATRIX: Tumor Necrosis Factor (TNF), Non-Selective radioligand binding (ligand: [125I] TNF-alpha); assay type: cell membranes, Membrane; settings: u-937; Not Active = under 50% inhibition at 10 µM
[4] = target: Carbonic anhydrase 2 (Homo sapiens, UniProt P00918); experiment: DRUGMATRIX: Carbonic Anhydrase II enzyme inhibition (substrate: 4-Nitrophenyl acetate (4-NPA)); assay type: tissue-based, Erythrocyte; settings: Not Active = under 50% inhibition at 10 µM
[5] = DRUGMATRIX: Glutamate, NMDA, Agonism radioligand binding (ligand: [3H] CGP-39653); assay type: cell membranes, Rattus norvegicus, Wistar, Cerebral cortex, Membrane; settings: Not Active = under 50% inhibition at 10 µM
[6] = target: T2, Nitric oxide synthase, inducible (Mus musculus, UniProt P29477); parameters: species or system Escherichia coli;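 also: inhibition of iNOS enzyme activity measured with L-arginine as substrate; in other assays of this panel Not Active means under 50% inhibition at 10 µM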
T2 sequence (P29477 whole entry): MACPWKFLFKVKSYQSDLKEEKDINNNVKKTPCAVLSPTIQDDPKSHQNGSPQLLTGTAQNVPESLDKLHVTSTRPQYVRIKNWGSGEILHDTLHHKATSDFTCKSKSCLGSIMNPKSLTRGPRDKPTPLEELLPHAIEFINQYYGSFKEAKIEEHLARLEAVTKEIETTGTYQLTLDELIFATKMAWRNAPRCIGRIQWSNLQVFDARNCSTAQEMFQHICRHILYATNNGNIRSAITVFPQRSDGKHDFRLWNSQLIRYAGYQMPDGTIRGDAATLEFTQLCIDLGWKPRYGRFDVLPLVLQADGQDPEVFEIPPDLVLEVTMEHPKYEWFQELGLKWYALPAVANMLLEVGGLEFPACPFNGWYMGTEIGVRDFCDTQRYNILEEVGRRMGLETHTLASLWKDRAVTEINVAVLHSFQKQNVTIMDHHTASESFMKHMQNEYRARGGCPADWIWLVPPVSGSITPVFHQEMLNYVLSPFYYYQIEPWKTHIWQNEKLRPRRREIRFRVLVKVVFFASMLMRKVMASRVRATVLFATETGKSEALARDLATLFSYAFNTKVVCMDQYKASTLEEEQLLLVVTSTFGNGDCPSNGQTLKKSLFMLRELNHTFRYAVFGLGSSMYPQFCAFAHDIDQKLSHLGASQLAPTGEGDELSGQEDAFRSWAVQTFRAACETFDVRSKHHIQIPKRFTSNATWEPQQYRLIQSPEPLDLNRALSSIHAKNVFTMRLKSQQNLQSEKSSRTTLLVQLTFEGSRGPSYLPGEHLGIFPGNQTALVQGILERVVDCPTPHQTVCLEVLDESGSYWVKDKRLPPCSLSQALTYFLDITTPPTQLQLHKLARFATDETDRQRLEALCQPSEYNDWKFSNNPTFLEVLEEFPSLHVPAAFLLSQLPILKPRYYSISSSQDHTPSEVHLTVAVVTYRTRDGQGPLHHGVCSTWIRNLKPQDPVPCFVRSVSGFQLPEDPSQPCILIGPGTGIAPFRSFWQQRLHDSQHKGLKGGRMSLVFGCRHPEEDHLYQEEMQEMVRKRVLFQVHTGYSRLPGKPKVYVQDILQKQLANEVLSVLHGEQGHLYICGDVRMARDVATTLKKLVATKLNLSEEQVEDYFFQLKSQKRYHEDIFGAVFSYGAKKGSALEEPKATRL

[7] = target: Cytochrome P450 2C9 (Homo sapiens, UniProt P11712); settings: bti-tn-5b1-4; also: in other assays of this panel Not Active means under 50% inhibition at 10 µM
Sequence of Cytochrome P450 2C9 (P11712 whole entry): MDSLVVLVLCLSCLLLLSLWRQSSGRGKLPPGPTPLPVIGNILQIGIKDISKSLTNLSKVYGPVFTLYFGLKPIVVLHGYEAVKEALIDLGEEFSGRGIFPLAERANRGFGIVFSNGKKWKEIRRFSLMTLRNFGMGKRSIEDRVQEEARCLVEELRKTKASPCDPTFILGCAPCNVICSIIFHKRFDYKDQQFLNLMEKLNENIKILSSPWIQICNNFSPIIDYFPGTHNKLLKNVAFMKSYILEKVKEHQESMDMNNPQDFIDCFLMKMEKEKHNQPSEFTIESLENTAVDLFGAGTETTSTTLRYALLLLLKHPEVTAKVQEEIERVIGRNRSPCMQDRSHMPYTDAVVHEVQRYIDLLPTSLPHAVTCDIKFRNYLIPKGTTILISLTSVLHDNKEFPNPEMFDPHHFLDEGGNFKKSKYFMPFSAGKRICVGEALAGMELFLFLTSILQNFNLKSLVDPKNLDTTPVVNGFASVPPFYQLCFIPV

[8] = target: T3, Estrogen receptor (Homo sapiens, UniProt P03372); settings: sf9; also: in other assays of this panel Not Active means under 50% inhibition at 10 µM
T3 sequence (P03372 whole entry): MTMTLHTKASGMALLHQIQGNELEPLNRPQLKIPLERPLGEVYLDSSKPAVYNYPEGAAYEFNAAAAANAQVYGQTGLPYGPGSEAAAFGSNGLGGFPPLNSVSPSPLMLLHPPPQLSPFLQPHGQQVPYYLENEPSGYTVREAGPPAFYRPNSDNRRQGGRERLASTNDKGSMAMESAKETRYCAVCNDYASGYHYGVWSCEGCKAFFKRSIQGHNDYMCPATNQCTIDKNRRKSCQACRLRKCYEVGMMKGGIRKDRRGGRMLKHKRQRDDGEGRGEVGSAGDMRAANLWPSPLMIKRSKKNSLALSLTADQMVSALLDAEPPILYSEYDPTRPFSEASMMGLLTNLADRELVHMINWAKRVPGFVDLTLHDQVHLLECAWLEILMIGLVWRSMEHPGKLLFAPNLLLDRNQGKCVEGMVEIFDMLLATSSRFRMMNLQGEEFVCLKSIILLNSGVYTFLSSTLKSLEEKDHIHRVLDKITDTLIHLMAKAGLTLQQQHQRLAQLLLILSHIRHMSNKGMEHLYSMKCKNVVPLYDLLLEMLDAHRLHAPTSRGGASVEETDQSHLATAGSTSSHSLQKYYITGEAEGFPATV

Sequence of Sigma non-opioid intracellular receptor 1 (Q99720 whole entry): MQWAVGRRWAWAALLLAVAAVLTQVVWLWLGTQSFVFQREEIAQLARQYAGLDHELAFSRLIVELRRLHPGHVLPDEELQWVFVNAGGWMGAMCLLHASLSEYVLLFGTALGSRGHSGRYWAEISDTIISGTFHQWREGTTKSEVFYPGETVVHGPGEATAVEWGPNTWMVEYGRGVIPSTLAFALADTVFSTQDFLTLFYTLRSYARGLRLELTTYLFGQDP

SMILES	IC50 [1]	IC50 ([2]; platelet)	IC50 [3]	Ki [3]	IC50 ([4]; erythrocyte)	IC50 [5]	Ki [5]	IC50 [6]	IC50 [7]	Ki [7]	IC50 [8]	IC50 ([2]; read-out: IC50) [µM]	IC50 ([4]; read-out: IC50) [µM]
COc1ccc(/C=C/C(=O)Nc2ccccc2C(=O)O)cc1OC	Not Active	Not Active	Not Active	Not Active	Not Active	Not Active	Not Active	Not Active	Not Active	Not Active	Not Active	–	–
CCOC(N)=O	Not Active	Not Active	Not Active	Not Active	Not Active	Not Active	Not Active	Not Active	Not Active	Not Active	Not Active	–	–
CC1=C(CC(=O)O)c2cc(F)ccc2/C1=C\c1ccc(S(C)(=O)=O)cc1 [EXISULIND]	Not Active	Not Active	Not Active	Not Active	Not Active	Not Active	Not Active	Not Active	Not Active	Not Active	Not Active	–	–
CC(C)OC(=O)C(C)(C)Oc1ccc(C(=O)c2ccc(Cl)cc2)cc1 [FENOFIBRATE]	Not Active	Not Active	–	–	Not Active	–	–	Not Active	Not Active	Not Active	Not Active	–	–
CN1C2CCCC1CC(NC(=O)c1nn(C)c3ccccc13)C2 (configuration not stated) [GRANISETRON]	Not Active	Not Active	–	–	Not Active	–	–	Not Active	Not Active	Not Active	Not Active	–	–
O=P(O)(O)C(O)(Cc1cccnc1)P(=O)(O)O [RISEDRONIC ACID]	Not Active	Not Active	Not Active	Not Active	Not Active	Not Active	Not Active	Not Active	Not Active	Not Active	Not Active	–	–
CN(CCOc1ccc(CC2SC(=O)NC2=O)cc1)c1ccccn1 (configuration not stated) [ROSIGLITAZONE]	Not Active	–	Not Active	Not Active	–	Not Active	Not Active	Not Active	Not Active	Not Active	Not Active	3.56	4.07
C#CCN(C)[C@H](C)Cc1ccccc1 [SELEGILINE]	Not Active	Not Active	Not Active	Not Active	Not Active	Not Active	Not Active	Not Active	Not Active	Not Active	Not Active	–	–
CN[C@@H]1[C@H](O)[C@H](NC)[C@H]2O[C@@]3(O)C(=O)C[C@@H](C)O[C@H]3O[C@@H]2[C@H]1O [SPECTINOMYCIN]	Not Active	Not Active	Not Active	Not Active	Not Active	Not Active	Not Active	Not Active	Not Active	Not Active	Not Active	–	–
COc1ncnc(NS(=O)(=O)c2ccc(N)cc2)c1OC [SULFADOXINE]	Not Active	Not Active	Not Active	Not Active	Not Active	Not Active	Not Active	Not Active	Not Active	Not Active	Not Active	–	–
Nc1ccc(S(=O)(=O)Nc2nccs2)cc1 [SULFATHIAZOLE]	Not Active	Not Active	Not Active	Not Active	Not Active	Not Active	Not Active	Not Active	Not Active	Not Active	Not Active	–	–
COc1cc(C(=O)NS(=O)(=O)c2ccccc2C)ccc1Cc1cn(C)c2ccc(NC(=O)OC3CCCC3)cc12 [ZAFIRLUKAST]	Not Active	–	Not Active	Not Active	Not Active	Not Active	Not Active	Not Active	–	–	Not Active	3.81	–

Source: ChEMBL document CHEMBL1909046, “DrugMatrix in vitro pharmacology data”
